One data set concerns TNF-α. Description: CD19 CAR T-cell / Raji co-culture: TNF-α in supernatant by multiplex Luminex. Type of data set: cell-based, human. An excerpt:
(§1) The impact of CTO1681 on the efficacy of CD19-targeting CAR T-cells in vitro as well as its ability to reduce CRS-inducing pro-inflammatory cytokine levels in the presence of CAR T-cells and tumor cells in vitro were explored. […] CD3 T cells were sorted from one healthy donor PBMCs, stimulated for a short period of time and transduced with CD19 CAR-T lentivirus (LV) containing CD28 and CD3ζ domains. CD19 CAR T-cells were expanded for 6 days and used in the assay. CD19-targeting CD3 T-cells were treated with 5 increasing concentrations of CTO1681 (0.36 nM, 1.8 nM, 9 nM, 45 nM, and 225 nM) or vehicle for 30 minutes, prior to, and during co-culture with CD19+ Raji lymphoma target cells. Media alone, vehicle, and positive control (dexamethasone) wells were included. Following initial treatment, CAR T-cells (Effectors) were co-cultured with fluorescently labeled CD19+ Raji tumor cells (Target cells) at 3 different Effector:Target cell ratios (10:1, 5:1 and 1:1) and treated with 5 different concentrations of CTO1681 or vehicle for 24 hours. Target cells (Raji cells) were fluorescently labelled with CPD (eBioscience™ Cell Proliferation Dye eFluor™) prior to co-culture to distinguish the Raji cells from the effector cells and allow for analysis of target viability by flow cytometry. Following incubation, supernatant was collected and levels of pro-inflammatory cytokines IL-6 and TNF-α were measured by multiplex Luminex assay and […] was measured via time-resolved fluorescence resonance energy transfer (TR-FRET) assay. These cytokines were selected for quantification as they are early cytokines released following CAR T-cell infusion in vivo that causes hyperactivation of the immune system resulting in acute systemic inflammation, CRS, multiorgan failure, and possible death. In addition, flow cytometry was used to measure the level of Raji tumor/target cell death following CAR T treatment across CTO1681 conditions to measure impact of CTO1681 with CAR T-cell efficacy. Co-cultures were stained with viability dye 7-AAD for measuring viability.

In the next data set the test system is IL-6. In words: CD19 CAR T-cell / Raji co-culture: IL-6 in supernatant by multiplex Luminex. The format is cell-based, human.
From the text: as §1

Another data set has as its system Raji-luc tumor cells. In words: CAR T-cell efficacy in NSG mice bearing Raji-luc tumors (IVIS imaging). The format is in vivo. As to conditions: 0.3, 0.2 or 0.15 mg/kg/d BID for 14 days; Day 15. The protocol:
The effects if any, of CTO1681 on CAR T-cell activity in vivo were measured. Human T-cells expressing CD19-CD28-CD3Z CAR construct was used in this experiment. 6-7 week old NSG™ (NOD SCID gamma) mice were engrafted with 1×10^6 luciferase (luc) expressing Raji tumor cells (herein referred to as “Raji-luc” tumor cells) each on Day 1 to allow for tumor growth over a 7-day period prior to the commencement of the treatment. CAR T-cell infusion was performed intravenously via lateral tail vein on (5×10^6 CD19 CAR T-cells generated from healthy donors). NSG mice are severely immunodeficient, which facilitates ready tumor engraftment and subsequent clearance due to CAR T-cells can be measured. Tumor growth after engraftment and subsequent clearance were monitored once weekly (starting on Day 7) using IVIS imaging to detect luciferase signal in living mice. CTO1681 administration began on Day 8, two days before CAR T-cell infusion, with injections twice a day for 14 days. Mice received total daily CTO1681 doses of 0.3 mg/kg/d, 0.2 mg/kg/d, or 0.15 mg/kg/d via two injections (BID). CTO1681 doses were selected based on the pharmacokinetic profile of the drug in mice. […] Mice were monitored for body temperature and health evaluations (weight, movement, posture, fur condition, etc.) throughout the entire study.

In data set [1] the test system is CD19+ Raji lymphoma target cells. Description: CD19 CAR T-cell killing of Raji target cells, flow cytometry (7-AAD). The format is cell-based, human. As to conditions: all concentrations 0.36-225 nM; 24 hours co-culture. An excerpt:
The impact of CTO1681 on the efficacy of CD19-targeting CAR T-cells in vitro as well as its ability to reduce CRS-inducing pro-inflammatory cytokine levels in the presence of CAR T-cells and tumor cells in vitro were explored. […] CD3 T cells were sorted from one healthy donor PBMCs, stimulated for a short period of time and transduced with CD19 CAR-T lentivirus (LV) containing CD28 and CD3ζ domains. CD19 CAR T-cells were expanded for 6 days and used in the assay. CD19-targeting CD3 T-cells were treated with 5 increasing concentrations of CTO1681 (0.36 nM, 1.8 nM, 9 nM, 45 nM, and 225 nM) or vehicle for 30 minutes, prior to, and during co-culture with CD19+ Raji lymphoma target cells. Media alone, vehicle, and positive control (dexamethasone) wells were included. […] Following incubation, supernatant was collected and levels of pro-inflammatory cytokines IL-6 and TNF-α were measured by multiplex Luminex assay and […] was measured via time-resolved fluorescence resonance energy transfer (TR-FRET) assay. These cytokines were selected for quantification as they are early cytokines released following CAR T-cell infusion in vivo that causes hyperactivation of the immune system resulting in acute systemic inflammation, CRS, multiorgan failure, and possible death. […]
On the technique in general: In flow cytometry, cells or beads pass a laser one at a time.

In a further data set the test system is IFN-γ. In words: CD19 CAR T-cell / Raji co-culture: IFN-γ in supernatant by TR-FRET. Type of data set: cell-based, human.
From the text: as §1
For orientation: TR-FRET usually uses a lanthanide donor and a delayed reading to cut background.

Data set [2] in a line: Health evaluations in NSG tumor-bearing mice. Type of data set: in vivo. The note with it: 0.3, 0.2 or 0.15 mg/kg/d BID for 14 days with CAR T-cells. The protocol:
Tumor growth after engraftment and subsequent clearance were monitored once weekly (starting on Day 7) using IVIS imaging to detect luciferase signal in living mice. CTO1681 administration began on Day 8, two days before CAR T-cell infusion, with injections twice a day for 14 days. Mice received total daily CTO1681 doses of 0.3 mg/kg/d, 0.2 mg/kg/d, or 0.15 mg/kg/d via two injections (BID). CTO1681 doses were selected based on the pharmacokinetic profile of the drug in mice. Control groups included mice receiving Raji-luc tumor cells without CAR T-cell treatment, mice receiving Raji-luc tumor cells and a CAR T-cell infusion, and mice receiving Raji-luc tumor cells with vehicle treatments. Mice were monitored for body temperature and health evaluations (weight, movement, posture, fur condition, etc.) throughout the entire study.

Setting [3] is: 10:1 ratio of Effectors to Target cells, 0.36-225 nM, 24 hours.
Setting [4] is: CAR T-cells:Raji cells 10:1, 0.36-225 nM.
[5] abbreviates: across three ratios of CAR-T cells to Raji cells (10:1, 5:1, 1:1).

Entries after “also recorded” stand apart in the source; their conditions may differ.

Regarding `CC#CC[C@H](C)[C@H](O)/C=C/[C@@H]1[C@H]2c3cccc(CCCC(=O)[O-])c3O[C@H]2C[C@H]1O.[Na+]` [CTO1681, sodium 4-((1R,2R,3aS,8bS)-2-hydroxy-1-((3S,4S,E)-3-hydroxy-4-methyloct-1-en-6-yn-1-yl)-2,3,3a,8b-tetrahydro-1H-cyclopenta[b]benzofuran-5-yl)butanoate], the “Maximum reduction TNF-α” value in the data set with TNF-α (setting [3]) is listed as “approximately 50%”. In addition, the “Effect on TNF-α levels” value with TNF-α (setting [4]) is recorded as “dose-dependently reduced; also recorded: dose-dependently lowers”. In addition, the “TNF-α with increasing concentrations” value with TNF-α (setting [5]) is recorded as “reduction”. In addition, the “Maximum reduction IL-6” value with IL-6 (setting [3]) is recorded as ~23%. The “Effect on IL-6 levels” value in the data set on IL-6 (setting [4]) was “dose-dependently reduced; also recorded: dose-dependently lowers”. Moreover, the “IL-6 with increasing concentrations” value in the data set with IL-6 (setting [5]) is reported as “reduction”. In addition, the “Effect on CD19 CAR T-cell activity (reduction of tumor burden, luciferase signal)” value in the data set on Raji-luc tumor cells is recorded as “did not affect; also recorded: does not interfere”. For the same molecule, the “Effect on tumor/target cell killing by CD19-directed CAR T-cells” value in data set [1] is on record as “did not impact or interfere; also recorded: absence of an effect”. For the same molecule, the IFN-γ is recorded as ~26% with IFN-γ (setting [3]) and “reduction” with IFN-γ (setting [5]). In addition, the “Effect on IFN-γ levels” value with IFN-γ (setting [4]) is on record as “dose-dependently reduced; also recorded: dose-dependently lowers”. The “Clinical morbidities, including weight loss or limb movement” value in data set [2] is listed as “did not cause any increase”.

(Values after US20250368611A1, “METHOD FOR PREPARING BERAPROST 314-D SODIUM” (YS Life Science Co., Ltd., priority 2024, published 2025).)
